Read-outs that look alike come from different tables or passages of the source.
Columns and labels:
hP2Y14R = molecular target: T1, hP2Y14R (Homo sapiens, UniProt Q15391); set-up: method as in PMID 28527783, PMID 23235874; details: previous members of the series; ref [29],[43]; cited from earlier work
T1 construct: expressed in transfected cells
T1 sequence (Q15391 1-338): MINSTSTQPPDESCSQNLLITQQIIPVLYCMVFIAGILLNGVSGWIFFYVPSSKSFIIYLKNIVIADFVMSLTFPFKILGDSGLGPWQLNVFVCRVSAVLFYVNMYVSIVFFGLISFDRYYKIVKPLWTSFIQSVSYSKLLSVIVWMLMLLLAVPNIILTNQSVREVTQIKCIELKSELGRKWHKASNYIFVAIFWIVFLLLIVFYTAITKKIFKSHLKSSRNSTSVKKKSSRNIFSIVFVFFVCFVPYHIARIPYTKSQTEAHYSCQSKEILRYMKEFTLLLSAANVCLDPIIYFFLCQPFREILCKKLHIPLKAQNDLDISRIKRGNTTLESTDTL

hP2Y6R = molecular target: T2, hP2Y6R (Homo sapiens, UniProt Q15077); assay: UDP (100 nM)-induced Ca2+ mobilization in hP2Y6R stably transfected 1321N1 astrocytoma cells; type: cell-based; details: UDP 100 nM; for IC50: 3–4 independent triplicate determinations
T2 construct: expressed in transfected cells
T2 sequence (Q15077 whole entry): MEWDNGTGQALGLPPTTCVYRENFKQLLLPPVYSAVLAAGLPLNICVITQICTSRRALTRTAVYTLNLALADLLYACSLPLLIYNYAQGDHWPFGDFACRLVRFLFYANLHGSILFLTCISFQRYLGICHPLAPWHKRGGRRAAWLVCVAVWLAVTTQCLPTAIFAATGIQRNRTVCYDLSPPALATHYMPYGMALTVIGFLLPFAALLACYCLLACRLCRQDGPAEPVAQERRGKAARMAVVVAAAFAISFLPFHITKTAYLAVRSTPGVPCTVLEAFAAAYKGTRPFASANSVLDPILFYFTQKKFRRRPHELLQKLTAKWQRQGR
Description: To screen for P2Y6R antagonist activity, PLC-mediated calcium mobilization assays were carried out using the recombinant human P2Y6R stably expressed in 1321N1 astrocytoma cells (hP2Y6R-1321N1) according to the previously published method. Briefly, the hP2Y6R-1321N1 cells were seeded on 96-well black plates and incubated overnight. The antagonists were pretreated along with the FLIPR dye (Calcium 6 assay kit, Molecular Devices, San Jose, CA, USA) containing 5 mM probenecid for 45 min, prior to agonist addition followed by an immediate intracellular Ca^2+ measurement. […] Here, probenecid was used as an organic anion transporter inhibitor to prevent the efflux of the dye into the extracellular environment. During incubation, the membrane permeable dye enters the cytoplasm and cleaves the acetoxymethyl protection to enable Ca^2+ binding. When the P2Y6R was activated by UDP, the increased calcium concentration was directly measured by intracellular changes in the fluorescence intensity with a Fluorescent Imaging Plate Reader (FLIPR^TETRA, Molecular Devices, San Jose, CA, USA).

other P2YRs = details: at high µM concentrations; ref [29],[43]; cited from earlier work
α2A = molecular target: T3, α2A (Homo sapiens, UniProt P08913); assay: PDSP binding assay, α2A; details: PDSP, mean, n = 2; read-out: Ki, α2A
T3 construct: NIMH Psychoactive Drug Screening Program (PDSP)
T3 sequence (P08913 1-465): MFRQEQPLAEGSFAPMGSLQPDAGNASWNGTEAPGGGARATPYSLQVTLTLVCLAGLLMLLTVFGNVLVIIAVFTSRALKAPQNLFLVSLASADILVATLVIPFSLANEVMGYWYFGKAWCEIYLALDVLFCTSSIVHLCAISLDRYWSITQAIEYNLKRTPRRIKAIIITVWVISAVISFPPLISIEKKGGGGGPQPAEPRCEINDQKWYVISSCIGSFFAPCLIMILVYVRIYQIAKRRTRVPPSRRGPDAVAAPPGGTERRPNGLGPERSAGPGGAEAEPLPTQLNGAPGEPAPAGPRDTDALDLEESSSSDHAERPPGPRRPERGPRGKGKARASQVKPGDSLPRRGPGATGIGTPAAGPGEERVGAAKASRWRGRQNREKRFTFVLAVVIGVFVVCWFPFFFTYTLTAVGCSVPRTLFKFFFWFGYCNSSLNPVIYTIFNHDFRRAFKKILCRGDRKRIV
Description: (§1) Table S2. Off-target screening (to replace table later). We thank Dr. Bryan L. Roth (Univ. North Carolina at Chapel Hill) and National Institute of Mental Health's Psychoactive Drug Screening Program (Contract # HHSN-271-2008-00025-C) for screening data. Reference: Besnard et al.
(§2) Procedures: https://pdsp.unc.edu/pdspweb/content/UNC-CH%20Protocol%20Book.pdf […]
(§3) nucleosides were found at the following sites (human unless noted): 5HT1A, 5HT1B, 5HT1D, […]
(§4) β3, BZP rat brain site, D1, D2, D3, D4, D5, GABAA, H1, H2, H3, H4, M1, M2, M5, δ-opioid receptor (DOR), κ-opioid receptor (KOR), μ-opioid receptor (MOR), σ1, σ2, DAT, NET, SERT. Ki values […]
(§5) Compound # PDSP # Receptor LogKi Ki (nM)

D5 = molecular target: T4, D5 (Homo sapiens, UniProt P21918); assay: PDSP binding assay, D5; details: PDSP, mean, n = 2; read-out: Ki, D5
T4 construct: NIMH Psychoactive Drug Screening Program (PDSP)
T4 sequence (P21918 whole entry): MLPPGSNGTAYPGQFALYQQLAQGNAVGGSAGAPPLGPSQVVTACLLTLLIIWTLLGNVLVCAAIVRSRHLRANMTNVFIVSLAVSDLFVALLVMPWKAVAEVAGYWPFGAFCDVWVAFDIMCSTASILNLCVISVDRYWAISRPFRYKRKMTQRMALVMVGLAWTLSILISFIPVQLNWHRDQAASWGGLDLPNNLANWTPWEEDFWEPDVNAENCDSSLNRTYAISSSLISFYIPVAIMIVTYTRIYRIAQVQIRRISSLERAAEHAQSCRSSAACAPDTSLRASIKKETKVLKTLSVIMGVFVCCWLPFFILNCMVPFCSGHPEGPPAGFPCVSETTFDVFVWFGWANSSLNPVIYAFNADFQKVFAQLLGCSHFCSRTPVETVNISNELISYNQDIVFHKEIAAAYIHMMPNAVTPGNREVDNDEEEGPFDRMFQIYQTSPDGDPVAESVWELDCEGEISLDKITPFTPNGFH
Description: as §1, §2, §3, §4, §5

α2B = molecular target: T5, α2B (Homo sapiens, UniProt P18089); assay: PDSP binding assay, α2B; details: mean, n = 2
T5 construct: NIMH Psychoactive Drug Screening Program (PDSP)
T5 sequence (P18089 1-450): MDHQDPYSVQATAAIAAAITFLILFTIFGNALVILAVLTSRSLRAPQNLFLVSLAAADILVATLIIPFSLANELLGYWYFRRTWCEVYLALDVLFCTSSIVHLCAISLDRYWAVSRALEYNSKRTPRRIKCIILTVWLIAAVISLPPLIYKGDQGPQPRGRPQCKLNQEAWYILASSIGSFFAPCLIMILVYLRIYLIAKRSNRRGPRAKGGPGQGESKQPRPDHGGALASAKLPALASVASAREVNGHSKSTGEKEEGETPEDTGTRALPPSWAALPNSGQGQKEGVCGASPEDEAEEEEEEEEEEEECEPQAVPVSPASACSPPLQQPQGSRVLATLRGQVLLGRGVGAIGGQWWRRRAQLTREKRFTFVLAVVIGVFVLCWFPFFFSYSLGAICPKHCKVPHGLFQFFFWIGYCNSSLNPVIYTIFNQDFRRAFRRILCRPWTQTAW
Description: as §1, §2, §3, §4, §5

5-HT1D = molecular target: T6, 5-HT1D (Homo sapiens, UniProt P28221); assay: PDSP binding assay, 5-HT1D; details: PDSP, mean, n = 2; read-out: Ki, 5-HT1D
T6 construct: NIMH Psychoactive Drug Screening Program (PDSP)
T6 sequence (P28221 whole entry): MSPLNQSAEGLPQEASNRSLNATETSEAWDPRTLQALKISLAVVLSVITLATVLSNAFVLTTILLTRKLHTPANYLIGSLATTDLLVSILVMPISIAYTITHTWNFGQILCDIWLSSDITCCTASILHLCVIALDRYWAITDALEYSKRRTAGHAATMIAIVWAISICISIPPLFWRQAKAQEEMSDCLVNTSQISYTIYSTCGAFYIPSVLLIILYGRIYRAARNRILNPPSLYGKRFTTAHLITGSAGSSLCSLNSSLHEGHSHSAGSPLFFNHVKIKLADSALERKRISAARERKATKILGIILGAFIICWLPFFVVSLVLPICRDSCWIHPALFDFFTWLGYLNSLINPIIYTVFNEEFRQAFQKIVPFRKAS
Description: as §1, §2, §3, §4, §5

[1] = read-out: IC50, hP2Y6R (Mean ± SEM)

IC50 (hP2Y6R; [1]) | SMILES | hP2Y14R binding (hP2Y14R) | other results
 | CC(C)(C)n1nc(-c2nc3cc(Cl)ccc3[nH]2)cc1-c1ccco1 [Compound 4, reference compound] |  | inhibition at 100 µM (hP2Y6R; 1321-N1, at 100 µM): 18.9 ± 8.5%; IC50 (hP2Y6R; IC50, hP2Y6R (Mean ± SEM)): > 100000 nM
 | O=[N+]([O-])C1=Cc2ccc(Cl)cc2OC1C(F)(F)F (stereo not shown) [Compound 7] | inactive | 
 | O=[N+]([O-])C1=Cc2cccc(Cl)c2OC1C(F)(F)F (stereo not shown) [Compound 8] | inactive | 
 | CC[Si](C#Cc1cccc2c1OC(C(F)(F)F)C([N+](=O)[O-])=C2)(CC)CC (stereo not shown) [Compound 14] |  | inhibition at most other P2YRs (other P2YRs): minor
 | O=[N+]([O-])C1=Cc2cc(C#Cc3ccc(O)cc3)ccc2OC1C(F)(F)F (stereo not shown) [Compound 15] | inactive | 
 | O=[N+]([O-])C1=Cc2cc(C#Cc3ccc(CO)cc3)ccc2OC1C(F)(F)F (stereo not shown) [Compound 16] | inactive | 
14000 ± 4700 nM | O=[N+]([O-])C1=Cc2cc(C#CCCCCCCCCBr)ccc2OC1C(F)(F)F (stereo not shown) [Compound 19] |  | 
587 ± 87 nM | CC(C)(C)OC(=O)NCCC#Cc1ccc2c(c1)C=C([N+](=O)[O-])C(C(F)(F)F)O2 (stereo not shown) [Compound 20] |  | Ki (α2A): 1600 nM; Ki (D5): 4400 nM
22600 ± 9300 nM | NCCC#Cc1ccc2c(c1)C=C([N+](=O)[O-])C(C(F)(F)F)O2 (stereo not shown) [Compound 21] |  | 
1870 ± 110 nM | CC(C)(C)OC(=O)NCCCC#Cc1ccc2c(c1)C=C([N+](=O)[O-])C(C(F)(F)F)O2 (stereo not shown) [Compound 22] |  | 
9980 ± 1370 nM | NCCCC#Cc1ccc2c(c1)C=C([N+](=O)[O-])C(C(F)(F)F)O2 (stereo not shown) [Compound 23] |  | 
5390 ± 1490 nM | NCCCCC#Cc1ccc2c(c1)C=C([N+](=O)[O-])C(C(F)(F)F)O2 (stereo not shown) [Compound 25] |  | 
1190 ± 250 nM | CC(C)(C)OC(=O)NCCCCCC#Cc1ccc2c(c1)C=C([N+](=O)[O-])C(C(F)(F)F)O2 (stereo not shown) [Compound 26] |  | Ki (α2A): 750 nM; Ki (α2B): 1700 nM; Ki (5-HT1D): 4800 nM

SMILES | IC50 (hP2Y6R; [1]) | hP2Y14R binding (hP2Y14R) | other results
O=[N+]([O-])C1=Cc2ccccc2OC1C(F)(F)F (stereo not shown) [Compound 2a, reference compound] | 2910 ± 1210 nM | inactive | inhibition at most other P2YRs (other P2YRs): minor
